In paper PMC8165160, “Substrate Specificities and Inhibition Pattern of the Solute Carrier Family 10 Members NTCP, ASBT and SOAT” (Frontiers in Molecular Biosciences, 2021):
Counter-ions that a name gives are not always drawn. Like-named read-outs stand apart in the source and are kept apart here.

Key:
SOAT [1] = biological target: T1, SOAT (Homo sapiens, UniProt Q3KNW5); set-up: method as in Geyer et al. (2007); settings: uptake via SOAT, same SOAT-HEK293 cell line; ref Geyer et al. (2007); cited from earlier work
T1 construct: The full-length open reading frames of NTCP, ASBT, and SOAT were cloned; expressed in transfected cells; host or cells: Flp-In T-REX HEK293 (SOAT-HEK293), tetracycline-induced
T1 sequence (Q3KNW5 1-377): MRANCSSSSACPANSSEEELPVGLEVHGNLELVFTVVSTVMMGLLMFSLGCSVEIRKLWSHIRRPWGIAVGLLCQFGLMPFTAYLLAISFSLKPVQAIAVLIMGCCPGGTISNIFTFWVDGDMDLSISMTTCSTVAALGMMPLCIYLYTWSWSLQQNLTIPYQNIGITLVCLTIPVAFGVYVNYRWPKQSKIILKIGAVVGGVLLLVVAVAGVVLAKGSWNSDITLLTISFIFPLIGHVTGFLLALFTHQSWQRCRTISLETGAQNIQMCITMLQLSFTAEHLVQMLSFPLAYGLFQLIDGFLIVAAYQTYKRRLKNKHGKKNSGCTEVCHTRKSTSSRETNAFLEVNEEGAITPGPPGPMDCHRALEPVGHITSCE

ASBT = biological target: T2, ASBT (Homo sapiens, UniProt Q12908); test: Substrate screening: sodium-dependent uptake of radiolabeled compounds in ASBT-HEK293 cells; assay type: cell-based; settings: radiolabeled bile acids 1 µM, 30 min, ASBT-HEK293, vs sodium-free control
T2 construct: The full-length open reading frames of NTCP, ASBT, and SOAT were cloned; expressed in transfected cells; host or cells: Flp-In T-REX HEK293 (ASBT-HEK293), tetracycline-induced
T2 sequence (Q12908 1-348): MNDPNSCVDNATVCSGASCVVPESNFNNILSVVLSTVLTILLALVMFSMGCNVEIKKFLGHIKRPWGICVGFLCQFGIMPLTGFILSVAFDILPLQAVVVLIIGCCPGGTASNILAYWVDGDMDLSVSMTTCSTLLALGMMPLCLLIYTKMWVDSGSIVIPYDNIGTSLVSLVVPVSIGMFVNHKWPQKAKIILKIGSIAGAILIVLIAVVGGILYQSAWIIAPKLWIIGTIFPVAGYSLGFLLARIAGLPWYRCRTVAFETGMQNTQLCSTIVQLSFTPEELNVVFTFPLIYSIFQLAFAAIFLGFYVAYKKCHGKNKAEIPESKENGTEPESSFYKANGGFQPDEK
Protocol: Stably SLC10 transporter transfected NTCP-HEK293, ASBT-HEK293, SOAT-HEK293 cells and the HEK293-FlpIn maternal cell line were seeded on 24-well plates (if not stated otherwise for individual assays). Well plates were coated with poly-D-lysine prior to seeding of 125,000 cells per well. Cells were grown with 1 ml of standard medium per well with or without tetracycline ([…]) for 72 h to induce carrier expression before respective assays were started. HEK293-FlpIn cells were cultivated with standard medium and served as control.
Uptake experiments were initiated by replacing the preincubation buffer by 500 μL transport buffer containing the radiolabeled test compound and were performed at 37°C. Transport was terminated by removing the transport buffer and washing five-times with ice-cold PBS. Cell monolayers were lysed in 1 N NaOH with 0.1% SDS and the cell-associated radioactivity was determined by liquid scintillation counting.
FIGURE 1 Comparative substrate screening for bile acids and sulfated steroids in NTCP-, ASBT-, and SOAT-HEK293 cells. Transport assays were performed with the indicated substrates in NTCP-HEK293, ABST-HEK293, SOAT-HEK293, and HEK293-FlpIn cells. Cells were washed and equilibrated with Na^+-containing transport buffer (filled bars) or with Na^+-free transport buffer (open bars) at 37°C. For uptake, cells were incubated with radiolabeled steroid compounds at a final concentration of 200 nM in Na^+-containing or Na^+-free transport buffer for 10 min. Radiolabeled bile acids were used at 1 µM concentrations and transport was analyzed over 30 min. HEK293-FlpIn cells served as additional controls. After the indicated time intervals, cells were washed with ice-cold PBS, lysed and subjected to liquid scintillation counting. […] 3-OH, trihydroxylated BAs; 2-OH, dihydroxylated BAs; 1-OH, monohydroxylated BAs.

SOAT [2] = biological target: T1, SOAT; test: Transport kinetics (concentration-dependent uptake) in SOAT-HEK293 cells; assay type: cell-based; settings: uptake via SOAT, 1 min, 37°C
Protocol: Cells were washed three times with phosphate buffered saline (PBS) (137 mM NaCl, 2.7 mM KCl, 1.5 mM KH2PO4, 7.3 mM Na2HPO4, pH 7.4, 37°C). Afterward, cells were preincubated at 37°C with sodium transport buffer (containing 142.9 mM NaCl, 4.7 mM KCl, 1.2 mM MgSO4, 1.2 mM KH2PO4, 1.8 mM CaCl2, and 20 mM HEPES (all chemicals from Sigma-Aldrich), adjusted to pH 7.4), or with choline transport buffer (equimolar substitution of sodium chloride with choline chloride). Uptake experiments were initiated by replacing the preincubation buffer by 500 μL transport buffer containing the radiolabeled test compound and were performed at 37°C. Transport was terminated by removing the transport buffer and washing five-times with ice-cold PBS. Cell monolayers were lysed in 1 N NaOH with 0.1% SDS and the cell-associated radioactivity was determined by liquid scintillation counting. Protein content of individual wells was determined by Lowry assay as reported before ([Geyer et al., 2007]).
FIGURE 2 NTCP, ASBT, and SOAT transport kinetics. Concentration-dependent uptake was analyzed in NTCP-HEK293, ASBT-HEK293, and SOAT-HEK293 cells for the indicated substrates at increasing substrate concentrations. […] Uptake was analyzed for 1 min at 37°C. Afterward, the medium was removed and each cell monolayer was washed and processed to determine the protein content and cell-associated radioactivity. […]

HDV = settings: NTCP expressing HepG2 hepatoma cells, trans-inhibitory effect; ref Lowjaga et al., 2021; cited from earlier work

Structure (SMILES)	Apparent K m (SOAT [1]) [µM]	V max (SOAT [1]) [pmol/mg protein/min]	Transport activity grading ASBT (mean uptake) (ASBT)	Apparent K m (SOAT [2]) [µM]	V max (SOAT [2]) [pmol/mg protein/min]	in vitro HDV infection (HDV)
C[C@]12CC[C@H](OS(=O)(=O)O)CC1=CC[C@@H]1[C@@H]2CC[C@]2(C)C(=O)CC[C@@H]12 [DHEAS, Dehydroepiandrosterone sulfate]	28.7 ± 3.9	1899 ± 81				
C[C@H](CCC(=O)NCCS(=O)(=O)O)[C@H]1CC[C@H]2[C@@H]3[C@H](O)C[C@@H]4C[C@H](O)CC[C@]4(C)[C@H]3C[C@H](O)[C@]12C [Taurocholic acid]			++ (“++” for values between 500 and 1000)			
C[C@H](CCC(=O)NCCS(=O)(=O)O)[C@H]1CC[C@H]2[C@@H]3CC[C@@H]4C[C@H](O)CC[C@]4(C)[C@H]3CC[C@]12C [Taurolithocholic acid]			+++ (“+++” for values above 1000 pmol/mg protein/30 min)	19.3 ± 6.8	617 ± 57	inhibited in vitro HDV infection
